Measurements from patent US8329063B2, “Low-emission formaldehyde donor preparations” (Air Liquide Sante (International), priority 2004, dated 2012).

Experiments:
[1] = Determining formaldehyde in the gas phase above preservatives (Dräger tubes 0.2/a); format: physicochemical
Method: 1. Method of Determining Formaldehyde in the Gas Phase
(§1) • The determination of the formaldehyde content in the gas phase above various preservatives was carried out using Dräger tubes 0.2/a (No. 6733081) in accordance with the instructions for use from Dräger Safety AG & Co. KGaA (9th Edition, July 2001). For this purpose, about 100 g of the sample to be investigated were introduced into a 250 ml wide-necked beaker with a screw lid and left to stand, in the closed state, for at least 3 hours at room temperature. The measurement was read off after 2 strokes on the scale 0.5 to 5 ppm, n=10. […] 2. Method of Determining Ammonia (Amine) in the Gas Phase • The determination of the amine content in the gas phase above various preservatives was carried out using Dräger tubes 2/a (No. 6733231) in accordance with the instructions for use from Dräger Safety AG & Co. KGaA (9th Edition, July 2001). For this purpose, about 100 g of the sample to be investigated were introduced into a 250 ml wide-necked beaker with a screw lid and left to stand, in the closed state, for at least 3 hours at room temperature. The measurement was read off after one stroke on the scale. […] 3. Formaldehyde and Amine Emissions of Preservatives • In the gas phase of preservatives formulated as described below, using the methods described under 1. and 2., the following formaldehyde and amine concentrations were measured in the gas phase (Table 1): • Preservatives A, B and C were prepared by adding urea and monoethylene glycol dissolved in water to Grotan® OX and stripping off the water on a rotary evaporator (2 hours at 60° C. and 30 mbar). Preservative D (comparative) was prepared by adding monoethylene glycol to Grotan® OX.

[2] = Determining ammonia (amine) in the gas phase above preservatives (Dräger tubes 2/a); format: physicochemical; conditions: amine as NH3
Method: as §1

In the case of CC1CN(CN2COC(C)C2)CO1 (stereo not drawn) [Example E, N,N′-methylenebis(5-methyloxazolidine)], the “ppm of HCHO” value ([1]; After 2 weeks (gas phase)) is reported as 3-5 ppm, the “ppm of HCHO” value ([1]; After 11 weeks (gas phase)) is reported as 0.7 ppm and the “ppm of HCHO” value ([1]; After 4 days (gas phase)) is reported as 3 ppm. The ppm of amine ([2]; After 2 weeks (gas phase)) was 15 ppm, the ppm of amine ([2]; After 11 weeks (gas phase)) was 13 ppm and the ppm of amine ([2]; After 4 days (gas phase)) was 10 ppm.
